A short description of series [1]: in vitro. The class given is in vitro ADME. To be noted: dog, MDCK. How it is done: (§1) An in vitro permeability assay using the MDCK cell line was performed to investigate the ability of elacridar to cross cellular membranes. […] Specifically, non-transduced MDCK cells, expressing only basal amounts of endogenous ABC-transporters, were seeded in the apical compartments of a 24 mm Transwell plate (3.0 μm Pore Polycarbonate Membrane Inserts) and incubated at 37° C. and 5.0% CO2 conditions until confluency was reached. Both apical-to-basolateral and basolateral-to-apical transport was analyzed in triplicate. To each donor compartment, 2 ml of Minimal Essential Medium (supplemented with 20% Fetal Bovine Serum) containing 1 μM elacridar and 50 nCi/ml (1.85 kBq/ml)^14C-inulin was added, while each acceptor compartment was filled with 2 ml blank Minimal Essential Medium (supplemented with 20% Fetal Bovine Serum). Samples of 100 μl were taken from each acceptor compartment at t=5 min, 30 min, 1 h, 2 h and 4 h as well as from all donor solutions for HPLC-MS/MS analysis of elacridar.
(§2) Samples for HPLC-MS/MS analysis were prepared as follows. Samples (50 μl) were pipetted into a 2 ml eppendorf vial and the internal standard (IS) solution (1 μM of elacridar-d4) in Minimal Essential Medium (supplemented with 20% Fetal Bovine Serum) and 1 ml of diethyl ether were added. […] An aliquot of 75 μl was subjected to HPLC-MS/MS using the conditions and set-up as described above for elacridar.
(§3) Leakage of the transwell membrane, as indicated by ^14C-inulin accumulation in the acceptor compartment, was analyzed in 10 μl samples from all time points as well as donor solutions. To each sample, 3 ml of Ultima Gold solution was added and vials were mixed thoroughly prior to radioactivity analysis using a Liquid Scintillation Counter.

Series [2] has as its system MDCK cell monolayer. The experiment in a line: in vitro. The series is classed as in vitro ADME. The following applies: dog, 1 μM. How it is done: as §1, §2, §3
Details of series [3]: species or system female Sprague-Dawley rats. To be noted: rat, in vivo. How it is done:
Studies were conducted in female Sprague-Dawley rats. […] The selected 100 mg/kg dose is well above the level where nonlinear pharmacokinetics have been documented. Ten animals were used at weekly intervals between each dosing to allow washout of the drug from the previous dosing.
Elacridar suspension formulation was prepared by weighing 100.03 mg of elacridar, which was first suspended in 5 ml of water, followed by 5 ml of vehicle solution (2.5% w/v of hydroxypropyl methyl cellulose (HPMC) and 2% v/v of Tween 80). This suspension was stirred for about 2.5 hours prior to dosing. The final concentration was 10 mg/ml. This suspension was given at 10 μl per gram body weight to achieve a dose level of 100 mg/kg
Elacridar nanoparticle (NP) suspensions were used as received, except for a final 5-fold dilution step to obtain a NP suspension of 10 mg/ml of elacridar.
There were three study groups: 1) Elacridar Suspension (n=4); 2) Elacridar TPGS nanoparticles (n=5); and 3) Elacridar Poloxamer nanoparticles (n=5). All animals received elacridar orally by gavage under light isoflurane anesthesia. The animals were fasted for a period of 3 h before drug administration. Food pellets were returned to the cages after the 4 h sampling point. Blood samples from the tail vein at: 15, 30 min, 1, 2, 4, 7, 24, 30 and 48 hours. Samples were kept on ice and centrifuged within 2 h to separate plasma. Plasma was stored at −20° C.
Formulation for i.v. administration was prepared by weighing 61.12 mg of elacridar and dissolving this in 2.056 ml of DMSO. The final concentration was 30 mg/ml. Animals (n=4) received […] per gram body weight (5 mg/kg). Blood samples were taken from the tail vein at: 5, 15, 30 min, 1, 2, 4, 7, 24, 30 and 48 h. Samples were kept on ice and centrifuged within 2 h to separate plasma. Plasma was stored at −20° C.
Samples were pre-treated as follows. […] 1000 μl of diethyl ether was added.

In series [1], `COc1cc2c(cc1OC)CN(CCc1ccc(NC(=O)c3cccc4c(=O)c5cccc(OC)c5[nH]c34)cc1)CC2` [elacridar] yielded a Papp A→B at 4 h, 1 μM of 11.2 ×10⁻⁶ cm/s and a Papp B→A at 4 h, 1 μM of 10.9 ×10⁻⁶ cm/s. Further, the “amount of elacridar at the receptor side relative to drug content at the donor side” value in series [2] is “about 6%”. In addition, the tolerability of dosing result in series [3] (100 mg/kg) is reported as “tolerated these doses of elacridar without any problem”.

Take DMSO: in series [3] (iv, 5 mg/kg), the “AUC(0-48 h)” value is 260.3 µg·min/mL, the “AUC(0-inf)” value is 272.2 µg·min/mL, the Cmax was 826.5 ng/mL and the F came out at 100.0%. Moreover, in series [3] (iv, 5 mg/kg), the Tmax stood at 0 h and the T½ amounted to 6.9 h.

The record behind these values is patent US20220133679A1, “EFFLUX INHIBITOR COMPOSITIONS AND METHODS OF TREATMENT USING THE SAME” (Izumi Technology, LLC, priority 2012, published 2022).
